In the supplement of paper PMC4862054:

Columns and labels:
CAL-148 [1] = assay: normalised viability (% of control), CellTiter-Blue; higher = more viable cells (about 100 = DMSO control); conditions: 300 nM; incubation time: 72 h
Procedure: (§1)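 DSRT, CellTiter-Blue viability, 72 h incubation. Signal is normalised to DMSO and benzethonium chloride controls. Value is the normalised response at dose 6.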

CAL-51 [2] = assay: as above; conditions: 300 nM; incubation time: 72 h
Procedure: as §1

DU-4475 [3] = assay: as above; conditions: 300 nM; incubation time: 72 h
Procedure: as §1

CAL-85-1 [4] = assay: as above; conditions: 300 nM; incubation time: 72 h
Procedure: as §1

MDA-MB-453 [5] = assay: as above; conditions: 300 nM; incubation time: 72 h
Procedure: as §1

HDQ-P1 [6] = assay: as above; conditions: 300 nM; incubation time: 72 h
Procedure: as §1

SK-BR-3 = assay: normalised viability (% of control), CellTiter-Blue; higher = more viable cells (100 = DMSO, 0 = benzethonium chloride kill control); conditions: 1 nM; incubation time: 72 h
Procedure: (§2)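 DSRT, CellTiter-Blue viability, 72 h incubation. Signal is normalised to DMSO and benzethonium chloride controls. Value is the normalised response at dose 1.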

BT-474 = assay: as above; conditions: 1 nM; incubation time: 72 h
Procedure: as §2

CAL-148 [7] = assay: as above; conditions: 1 nM; incubation time: 72 h
Procedure: as §2

CAL-51 [8] = assay: as above; conditions: 1 nM; incubation time: 72 h
Procedure: as §2

HCC1143 = assay: as above; conditions: 1 nM; incubation time: 72 h
Procedure: as §2

MDA-MB-231 = assay: as above; conditions: 1 nM; incubation time: 72 h
Procedure: as §2

DU-4475 [9] = assay: as above; conditions: 1 nM; incubation time: 72 h
Procedure: as §2

BT-549 = assay: as above; conditions: 1 nM; incubation time: 72 h
Procedure: as §2

CAL-85-1 [10] = assay: as above; conditions: 1 nM; incubation time: 72 h
Procedure: as §2

HCC1599 = assay: as above; conditions: 1 nM; incubation time: 72 h
Procedure: as §2

MDA-MB-453 [11] = assay: as above; conditions: 1 nM; incubation time: 72 h
Procedure: as §2

MDA-MB-436 = assay: as above; conditions: 1 nM; incubation time: 72 h
Procedure: as §2

Hs578T = assay: as above; conditions: 1 nM; incubation time: 72 h
Procedure: as §2

MFM-223 [12] = assay: as above; conditions: 1 nM; incubation time: 72 h
Procedure: as §2

MDA-MB-468 = assay: as above; conditions: 1 nM; incubation time: 72 h
Procedure: as §2

CAL-120 = assay: as above; conditions: 1 nM; incubation time: 72 h
Procedure: as §2

HCC1937 [13] = assay: as above; conditions: 1 nM; incubation time: 72 h
Procedure: as §2

HDQ-P1 [14] = assay: as above; conditions: 1 nM; incubation time: 72 h
Procedure: as §2

MCF-10A = assay: drug sensitivity score (DSS), CellTox Green (DSS (AUC-based score)); higher = stronger drug effect (viability inhibition or cytotoxicity); extreme values may be limits of the assay; conditions: incubation time: 72 h
Outline: (§3)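 Compound was dispensed into 384-well plates at 5 concentrations in 10-fold steps spanning a 10,000-fold range chosen for each compound, and 20 µl of breast cancer cell suspension was added before 72 h of incubation. CellTox Green fluorescence was read at 485/520 nm, followed by CellTiter-Glo luminescence after 10 min at room temperature. Values on each plate were normalised to 0.1 % DMSO and a positive kill control. The drug sensitivity score came from the area under the fitted dose-response curve.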

MFM-223 [15] = assay: as above; conditions: incubation time: 72 h
Outline: as §3

HCC1937 [16] = assay: as above; conditions: incubation time: 72 h
Outline: as §3

Question: With `CCc1cncnc1N1CCN(Cc2nc3ccc(C(F)(F)F)cc3[nH]2)CC1` as the compound, how does the normalised viability (CAL-148 [1]) read?
Answer: 107%

Question: And the normalised viability (CAL-51 [2])?
Answer: 88.1%

Question: And the normalised viability (DU-4475 [3])?
Answer: 105%

Question: And the normalised viability (CAL-85-1 [4])?
Answer: 89.8%

Question: And the normalised viability (MDA-MB-453 [5])?
Answer: 101%

Question: And the normalised viability (HDQ-P1 [6])?
Answer: 105%

Question: And the normalised viability (SK-BR-3)?
Answer: 88.8%

Question: What about the normalised viability (BT-474) of the same compound?
Answer: 102%

Question: What about the normalised viability (CAL-148 [7]) of the same compound?
Answer: 114%

Question: And the normalised viability (CAL-51 [8])?
Answer: 90.8%

Question: What about the normalised viability (HCC1143) of the same compound?
Answer: 103%

Question: And the normalised viability (MDA-MB-231)?
Answer: 96.8%

Question: And the normalised viability (DU-4475 [9])?
Answer: 93.2%

Question: And the normalised viability (BT-549)?
Answer: 98.2%

Question: What about the normalised viability (CAL-85-1 [10]) of the same compound?
Answer: 99%

Question: And the normalised viability (HCC1599)?
Answer: 82.6%

Question: What about the normalised viability (MDA-MB-453 [11]) of the same compound?
Answer: 101%

Question: What about the normalised viability (MDA-MB-436) of the same compound?
Answer: 106%

Question: What about the normalised viability (Hs578T) of the same compound?
Answer: 106%

Question: And the normalised viability (MFM-223 [12])?
Answer: 103%

Question: What about the normalised viability (MDA-MB-468) of the same compound?
Answer: 109%

Question: What about the normalised viability (CAL-120) of the same compound?
Answer: 111%

Question: And the normalised viability (HCC1937 [13])?
Answer: 86.6%

Question: What about the normalised viability (HDQ-P1 [14]) of the same compound?
Answer: 106%

Question: What about the drug sensitivity score (MCF-10A) of the same compound?
Answer: 0

Question: And the drug sensitivity score (MFM-223 [15])?
Answer: 0

Question: And the drug sensitivity score (HCC1937 [16])?
Answer: 0

Question: With `C=CC(=O)Nc1cc2c(Nc3ccc(F)c(Cl)c3)ncnc2cc1OCCCN1CCOCC1` [Canertinib] as the compound, how does the normalised viability (CAL-148 [1]) read?
Answer: 81.2%

Question: What about the normalised viability (CAL-51 [2]) of the same compound?
Answer: 104%

Question: What about the normalised viability (DU-4475 [3]) of the same compound?
Answer: 93.3%

Question: What about the normalised viability (CAL-85-1 [4]) of the same compound?
Answer: 54%

Question: And the normalised viability (MDA-MB-453 [5])?
Answer: 48.6%

Question: What about the normalised viability (HDQ-P1 [6]) of the same compound?
Answer: 32.4%

Question: And the normalised viability (SK-BR-3)?
Answer: 86.2%

Question: And the normalised viability (BT-474)?
Answer: 97.5%

Question: And the normalised viability (CAL-148 [7])?
Answer: 99.5%

Question: And the normalised viability (CAL-51 [8])?
Answer: 109%

Question: And the normalised viability (HCC1143)?
Answer: 90.2%

Question: What about the normalised viability (MDA-MB-231) of the same compound?
Answer: 98.5%

Question: And the normalised viability (DU-4475 [9])?
Answer: 98.5%

Question: And the normalised viability (BT-549)?
Answer: 110%

Question: What about the normalised viability (CAL-85-1 [10]) of the same compound?
Answer: 80%

Question: What about the normalised viability (HCC1599) of the same compound?
Answer: 94.8%

Question: What about the normalised viability (MDA-MB-453 [11]) of the same compound?
Answer: 103%

Question: What about the normalised viability (MDA-MB-436) of the same compound?
Answer: 97.5%

Question: What about the normalised viability (Hs578T) of the same compound?
Answer: 103%

Question: And the normalised viability (MFM-223 [12])?
Answer: 92.8%

Question: What about the normalised viability (MDA-MB-468) of the same compound?
Answer: 110%

Question: What about the normalised viability (CAL-120) of the same compound?
Answer: 84.4%

Question: And the normalised viability (HCC1937 [13])?
Answer: 90.6%

Question: And the normalised viability (HDQ-P1 [14])?
Answer: 88.3%

Question: And the drug sensitivity score (MCF-10A)?
Answer: 8.86

Question: And the drug sensitivity score (MFM-223 [15])?
Answer: 2.12

Question: What about the drug sensitivity score (HCC1937 [16]) of the same compound?
Answer: 0

Question: Which results are given for `O=C(Cc1ccc(-c2ccc(OCCN3CCOCC3)cc2)cn1)NCc1ccccc1` [KX2-391]?
Answer: normalised viability (CAL-148 [1]): 20.4%; normalised viability (CAL-51 [2]): 13.9%; normalised viability (DU-4475 [3]): 9.43%; normalised viability (CAL-85-1 [4]): 36.3%; normalised viability (MDA-MB-453 [5]): 28.3%; normalised viability (HDQ-P1 [6]): 46.6%; normalised viability (SK-BR-3): 105%; normalised viability (BT-474): 79.1%; normalised viability (CAL-148 [7]): 107%; normalised viability (CAL-51 [8]): 106%; normalised viability (HCC1143): 92.7%; normalised viability (MDA-MB-231): 92.8%; normalised viability (DU-4475 [9]): 103%; normalised viability (BT-549): 124%; normalised viability (CAL-85-1 [10]): 84.6%; normalised viability (HCC1599): 85.8%; normalised viability (MDA-MB-453 [11]): 116%; normalised viability (MDA-MB-436): 89%; normalised viability (Hs578T): 130%; normalised viability (MFM-223 [12]): 91.7%; normalised viability (MDA-MB-468): 113%; normalised viability (CAL-120): 93.8%; normalised viability (HCC1937 [13]): 93.7%; normalised viability (HDQ-P1 [14]): 138%; drug sensitivity score (MCF-10A): 15.5; drug sensitivity score (MFM-223 [15]): 13.2; drug sensitivity score (HCC1937 [16]): 3.38
